# Measured values: patent US7759072B2, “Immunoassay method and reagent therefor” (Sekisui Medical Co., Ltd., priority 2005, dated 2010)
# Biological target: T1, apo-D-amino acid oxidase (Sus scrofa, UniProt P00371)
# T1 construct: Apo-D-amino acid oxidase extracted and purified from the porcine kidneys is known and can be suitably used; purchased Calzyme Inc. 176A0025
# Assay: Comparison of reactivity between various D-amino acids as substrates of FAD-reactivated apo-D-amino acid oxidase (peroxidase/DA-64 colorimetric, Hitachi 7170)
# Format: biochemical, porcine
# Conditions: 5 mM D-amino acid in reagent 1, 50 mM Tris-HCl pH 8.3; 10 U/ml apo-D-amino acid oxidase, FAD sample; 700 nm; D-valine = 100
# Protocol: Reagent 1 containing 50 mM Tris-HCl (pH 8.3), 5 mM DA-64 (Wako Pure Chemical Industries), and 5 mM D-amino acid, reagent 2 containing 10 U/ml apo-D-amino acid oxidase (Calzyme Inc., Catalog No. 176A0025) and 5 U/ml peroxidase, and aqueous FAD solution as a sample were applied to a Hitachi 7170 automated analyzer at a setting of two-point end-mode and using a parameters of 7 μl for a sample, 180 μl for R1, 90 μl for R2, and 700 nm for a wavelength for determination.
# As in 1), the activity of the reconstituted apoenzyme was confirmed. Assays only varying types of the D-amino acids were then performed. As D-amino acids, D-forms of Ala, Met, Val, Ile, Phe, Pro, Ser, Thr, Asn, Leu, Tyr, Trp, Asp, Glu, His, and Arg were each used. The percent reactivities of the above-mentioned various D-amino acids were calculated to the value of D-valine which was defined as 100.
# T1 sequence (P00371 whole entry): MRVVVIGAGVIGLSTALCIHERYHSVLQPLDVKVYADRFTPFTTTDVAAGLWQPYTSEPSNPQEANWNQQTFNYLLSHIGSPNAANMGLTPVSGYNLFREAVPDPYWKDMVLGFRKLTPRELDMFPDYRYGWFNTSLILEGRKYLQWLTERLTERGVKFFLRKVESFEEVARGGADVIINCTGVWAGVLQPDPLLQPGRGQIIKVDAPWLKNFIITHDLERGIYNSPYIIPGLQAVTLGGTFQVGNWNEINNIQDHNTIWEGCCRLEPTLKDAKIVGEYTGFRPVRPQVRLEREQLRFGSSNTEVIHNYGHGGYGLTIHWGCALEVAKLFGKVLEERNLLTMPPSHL
row,percent reactivity of D-amino acid (relative to D-valine defined as 100) [%],SMILES
1,100,"CC(C)[C@@H](N)C(=O)O [D-Val, D-valine]"
2,117,N[C@H](CO)C(=O)O [D-Ser]
3,14,N[C@H](Cc1c[nH]c2ccccc12)C(=O)O [D-Trp]
4,159,"N[C@H](Cc1ccc(O)cc1)C(=O)O [D-Tyr, D-tyrosine]"

# Second part, the compound before the results:
row,SMILES,percent reactivity of D-amino acid (relative to D-valine defined as 100) [%]
1,NC(N)=NCCCC(N)C(=O)O [D-Arg],8
2,N[C@H](Cc1ccccc1)C(=O)O [D-Phe],170
3,C[C@@H](N)C(=O)O [D-Ala],136
4,"O=C(O)[C@H]1CCCN1 [D-Pro, D-proline]",374
5,CSCC[C@@H](N)C(=O)O [D-Met],322
6,CC(C)C[C@@H](N)C(=O)O [D-Leu],97
7,CC[C@@H](C)[C@@H](N)C(=O)O [D-Ile],178
